According to PubChem BioAssay (NCI):
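In this assay, cells in 96-well plates receive the compound at five concentrations for 48 hours. Endpoints are linearly interpolated between the surrounding concentrations. At the TGI there is no net growth.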

Key:
Assay in all cases: growth of human tumour cells (NCI), 48 h
UACC-257 melanoma = system: UACC-257 melanoma
M14 melanoma = system: M14 melanoma
786-0 renal = system: 786-0 renal
LOX IMVI melanoma = system: LOX IMVI melanoma
SR leukemia = system: SR leukemia
UO-31 renal = system: UO-31 renal
SNB-19 CNS = system: SNB-19 CNS
MALME-3M melanoma = system: MALME-3M melanoma
SN12C renal = system: SN12C renal
OVCAR-3 ovarian = system: OVCAR-3 ovarian
CCRF-CEM leukemia = system: CCRF-CEM leukemia
HL-60(TB) leukemia = system: HL-60(TB) leukemia
OVCAR-5 ovarian = system: OVCAR-5 ovarian
SF-268 CNS = system: SF-268 CNS
NCI-H226 lung = system: NCI-H226 lung
HT29 colon = system: HT29 colon
EKVX NSCLC = system: EKVX NSCLC
HCT-116 colon = system: HCT-116 colon
SK-MEL-28 melanoma = system: SK-MEL-28 melanoma
K-562 leukemia = system: K-562 leukemia
SW-620 colon = system: SW-620 colon
SF-539 CNS = system: SF-539 CNS
NCI/ADR-RES ovarian = system: NCI/ADR-RES ovarian
COLO 205 colon = system: COLO 205 colon
U251 CNS = system: U251 CNS
ACHN renal = system: ACHN renal
SNB-75 CNS = system: SNB-75 CNS
MCF7 breast = system: MCF7 breast
SK-MEL-5 melanoma = system: SK-MEL-5 melanoma
A549 NSCLC = system: A549 NSCLC
MDA-MB-231 breast = system: MDA-MB-231 breast
TK-10 renal = system: TK-10 renal
RPMI-8226 leukemia = system: RPMI-8226 leukemia
SF-295 CNS = system: SF-295 CNS
NCI-H460 lung = system: NCI-H460 lung
IGROV1 ovarian = system: IGROV1 ovarian
MDA-N = system: MDA-N
MDA-MB-435 = system: MDA-MB-435
T-47D breast = system: T-47D breast
HS 578T breast = system: HS 578T breast
OVCAR-4 ovarian = system: OVCAR-4 ovarian
SK-MEL-2 melanoma = system: SK-MEL-2 melanoma
MOLT-4 leukemia = system: MOLT-4 leukemia
HOP-62 NSCLC = system: HOP-62 NSCLC
HCT-15 colon = system: HCT-15 colon
HOP-92 NSCLC = system: HOP-92 NSCLC
NCI-H23 lung = system: NCI-H23 lung
NCI-H522 lung = system: NCI-H522 lung
OVCAR-8 ovarian = system: OVCAR-8 ovarian
DU-145 prostate = system: DU-145 prostate
CAKI-1 renal = system: CAKI-1 renal
PC-3 prostate = system: PC-3 prostate
HCC-2998 colon = system: HCC-2998 colon
KM12 colon = system: KM12 colon
A498 renal = system: A498 renal
UACC-62 melanoma = system: UACC-62 melanoma
BT-549 breast = system: BT-549 breast
RXF 393 renal = system: RXF 393 renal
SK-OV-3 ovarian = system: SK-OV-3 ovarian

Measured: TGI

NS(=O)(=O)c1cc2c(cc1Cl)NCNS2(=O)=O
> 100 µM: UACC-257 melanoma | M14 melanoma | 786-0 renal | LOX IMVI melanoma | SR leukemia | UO-31 renal | SNB-19 CNS | MALME-3M melanoma | SN12C renal | OVCAR-3 ovarian | CCRF-CEM leukemia | HL-60(TB) leukemia | OVCAR-5 ovarian | SF-268 CNS | NCI-H226 lung | HT29 colon | EKVX NSCLC | HCT-116 colon | SK-MEL-28 melanoma | K-562 leukemia | SW-620 colon | SF-539 CNS | NCI/ADR-RES ovarian | COLO 205 colon | U251 CNS | ACHN renal | SNB-75 CNS | MCF7 breast | SK-MEL-5 melanoma | A549 NSCLC | MDA-MB-231 breast | TK-10 renal | RPMI-8226 leukemia | SF-295 CNS | NCI-H460 lung | IGROV1 ovarian | MDA-N | MDA-MB-435 | T-47D breast | HS 578T breast | OVCAR-4 ovarian | SK-MEL-2 melanoma | MOLT-4 leukemia | HOP-62 NSCLC | HCT-15 colon | HOP-92 NSCLC | NCI-H23 lung | NCI-H522 lung | OVCAR-8 ovarian | DU-145 prostate | CAKI-1 renal | PC-3 prostate | HCC-2998 colon | KM12 colon

COC(=O)/C=C1\C(CO[Si](C)(C)C(C)(C)C)OC(n2ccc(=O)[nH]c2=O)C1O (stereo unspecified)
> 43 µM: MDA-MB-435
> 40.4 µM: UACC-257 melanoma
> 80.5 µM: BT-549 breast
16.9 µM: HCT-116 colon
2.39 µM: SF-268 CNS
54.1 µM: UACC-62 melanoma
> 54.4 µM: SN12C renal
16.6 µM: 786-0 renal
44 µM: HOP-92 NSCLC
29.4 µM: RPMI-8226 leukemia
> 75.2 µM: IGROV1 ovarian
26.2 µM: HCC-2998 colon
> 22.3 µM: T-47D breast
21.1 µM: SK-MEL-2 melanoma
32.5 µM: RXF 393 renal
> 100 µM: SNB-19 CNS | SW-620 colon | SNB-75 CNS | MDA-MB-231 breast | TK-10 renal | SF-295 CNS | OVCAR-4 ovarian | OVCAR-8 ovarian | CAKI-1 renal
29.6 µM: UO-31 renal
> 95.4 µM: K-562 leukemia
> 31.1 µM: HOP-62 NSCLC
> 39.4 µM: KM12 colon
30.2 µM: SF-539 CNS
21.4 µM: SK-MEL-28 melanoma
82.9 µM: A549 NSCLC
> 27.9 µM: PC-3 prostate
55.3 µM: NCI-H23 lung
> 31.6 µM: MOLT-4 leukemia
49.2 µM: M14 melanoma
59.8 µM: EKVX NSCLC
41.6 µM: A498 renal
> 65.5 µM: ACHN renal
26.4 µM: SR leukemia
50.9 µM: OVCAR-5 ovarian
32.7 µM: DU-145 prostate
54.5 µM: OVCAR-3 ovarian
15.5 µM: LOX IMVI melanoma
> 87.3 µM: U251 CNS
80.5 µM: HT29 colon
> 66.4 µM: MDA-N
26.1 µM: CCRF-CEM leukemia
10.3 µM: COLO 205 colon
21.7 µM: SK-MEL-5 melanoma
19.5 µM: NCI-H226 lung
31.4 µM: MCF7 breast
38.4 µM: NCI/ADR-RES ovarian
37.8 µM: NCI-H460 lung
35.2 µM: HCT-15 colon

NCCCCNOCCCN
> 100 µM: UACC-257 melanoma | M14 melanoma | LOX IMVI melanoma | SR leukemia | UO-31 renal | SNB-19 CNS | MALME-3M melanoma | SN12C renal | OVCAR-3 ovarian | CCRF-CEM leukemia | OVCAR-5 ovarian | SF-268 CNS | NCI-H226 lung | HT29 colon | EKVX NSCLC | UACC-62 melanoma | HCT-116 colon | SK-MEL-28 melanoma | BT-549 breast | K-562 leukemia | SW-620 colon | SF-539 CNS | NCI/ADR-RES ovarian | COLO 205 colon | U251 CNS | ACHN renal | SNB-75 CNS | MCF7 breast | SK-MEL-5 melanoma | A549 NSCLC | SK-OV-3 ovarian | RXF 393 renal | TK-10 renal | RPMI-8226 leukemia | SF-295 CNS | NCI-H460 lung | IGROV1 ovarian | MDA-N | MDA-MB-435 | T-47D breast | HS 578T breast | OVCAR-4 ovarian | SK-MEL-2 melanoma | MOLT-4 leukemia | HOP-92 NSCLC | NCI-H23 lung | NCI-H522 lung | OVCAR-8 ovarian | DU-145 prostate | CAKI-1 renal | PC-3 prostate | HCC-2998 colon | KM12 colon
